pIC50: −log10 of the molar value.
How the values were obtained:
Assay type in all cases: biochemical
[1] = biological target: T1, Lck (Homo sapiens, UniProt P06239); assay: Kinase inhibition assay (33P transfer), Lck; settings: Table 3, class symbols; read-out: Lck-1
T1 construct: Kinases are expressed as either kinase domains or full length constructs; made in house
How it was run: (§1)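 Liquid scintillation counting of 33P on plate-bound synthetic substrates gives kinase activity. Plates are washed in 0.5% phosphoric acid first; kinases are tagged recombinant proteins from E. coli or baculovirus-infected High Five cells.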

[2] = biological target: T2, c-Met (Homo sapiens, UniProt P08581); assay: Kinase inhibition assay (33P transfer), c-Met; settings: Table 2, class symbols A-E; read-out: Met-1
T2 construct: Kinases are expressed as either kinase domains or full length constructs; made in house
T2 sequence (P08581 25-1390): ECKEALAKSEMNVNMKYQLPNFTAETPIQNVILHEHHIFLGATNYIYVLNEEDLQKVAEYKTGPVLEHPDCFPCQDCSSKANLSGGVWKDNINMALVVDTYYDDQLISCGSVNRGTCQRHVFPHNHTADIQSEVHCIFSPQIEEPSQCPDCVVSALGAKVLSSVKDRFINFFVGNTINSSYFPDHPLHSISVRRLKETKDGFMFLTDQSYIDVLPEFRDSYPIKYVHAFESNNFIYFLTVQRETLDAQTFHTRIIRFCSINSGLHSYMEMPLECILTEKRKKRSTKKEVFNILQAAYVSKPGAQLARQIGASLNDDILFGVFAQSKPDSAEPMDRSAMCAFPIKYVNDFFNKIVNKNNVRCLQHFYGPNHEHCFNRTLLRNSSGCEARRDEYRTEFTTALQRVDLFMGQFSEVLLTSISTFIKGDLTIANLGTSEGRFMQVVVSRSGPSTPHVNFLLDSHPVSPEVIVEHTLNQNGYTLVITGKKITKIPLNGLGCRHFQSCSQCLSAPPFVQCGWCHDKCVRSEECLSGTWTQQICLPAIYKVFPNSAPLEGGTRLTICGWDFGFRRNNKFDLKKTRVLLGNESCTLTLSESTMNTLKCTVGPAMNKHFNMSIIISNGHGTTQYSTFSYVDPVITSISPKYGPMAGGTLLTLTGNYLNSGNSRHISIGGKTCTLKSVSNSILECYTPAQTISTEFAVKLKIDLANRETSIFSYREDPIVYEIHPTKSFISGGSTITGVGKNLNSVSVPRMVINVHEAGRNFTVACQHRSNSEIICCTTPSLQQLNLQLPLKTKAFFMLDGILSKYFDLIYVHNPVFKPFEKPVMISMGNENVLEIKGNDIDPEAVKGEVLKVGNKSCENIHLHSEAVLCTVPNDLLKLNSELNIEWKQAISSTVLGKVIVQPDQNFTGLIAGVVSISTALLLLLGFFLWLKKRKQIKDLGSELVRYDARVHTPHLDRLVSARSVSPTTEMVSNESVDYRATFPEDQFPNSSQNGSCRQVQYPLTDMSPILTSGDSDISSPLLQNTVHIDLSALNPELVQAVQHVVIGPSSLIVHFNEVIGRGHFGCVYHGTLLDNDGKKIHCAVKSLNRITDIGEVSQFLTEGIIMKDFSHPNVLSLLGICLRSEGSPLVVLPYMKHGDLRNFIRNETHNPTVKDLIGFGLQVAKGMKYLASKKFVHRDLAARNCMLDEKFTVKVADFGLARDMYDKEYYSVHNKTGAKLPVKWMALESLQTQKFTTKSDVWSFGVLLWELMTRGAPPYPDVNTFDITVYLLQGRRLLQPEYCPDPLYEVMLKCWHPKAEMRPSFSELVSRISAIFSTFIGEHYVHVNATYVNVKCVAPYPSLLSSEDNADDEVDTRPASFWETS
How it was run: (§2)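 Recombinant kinase domains or full-length GST- or His-tagged constructs, from E. coli or baculovirus/High Five cells, sometimes with regulatory polypeptides. Transfer of 33P from ATP to plate-bound poly(Glu,Tyr) 4:1 or poly(Arg,Ser) 3:1 counted by liquid scintillation after phosphoric acid wash; IC50 is the concentration halving incorporation.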

[3] = biological target: T3, Zap-70 (Homo sapiens, UniProt P43403); assay: Kinase inhibition assay (33P transfer), Zap-70; settings: Table 3, class symbols; read-out: Zap-1
T3 construct: Kinases are expressed as either kinase domains or full length constructs; made in house
T3 sequence (P43403 1-619): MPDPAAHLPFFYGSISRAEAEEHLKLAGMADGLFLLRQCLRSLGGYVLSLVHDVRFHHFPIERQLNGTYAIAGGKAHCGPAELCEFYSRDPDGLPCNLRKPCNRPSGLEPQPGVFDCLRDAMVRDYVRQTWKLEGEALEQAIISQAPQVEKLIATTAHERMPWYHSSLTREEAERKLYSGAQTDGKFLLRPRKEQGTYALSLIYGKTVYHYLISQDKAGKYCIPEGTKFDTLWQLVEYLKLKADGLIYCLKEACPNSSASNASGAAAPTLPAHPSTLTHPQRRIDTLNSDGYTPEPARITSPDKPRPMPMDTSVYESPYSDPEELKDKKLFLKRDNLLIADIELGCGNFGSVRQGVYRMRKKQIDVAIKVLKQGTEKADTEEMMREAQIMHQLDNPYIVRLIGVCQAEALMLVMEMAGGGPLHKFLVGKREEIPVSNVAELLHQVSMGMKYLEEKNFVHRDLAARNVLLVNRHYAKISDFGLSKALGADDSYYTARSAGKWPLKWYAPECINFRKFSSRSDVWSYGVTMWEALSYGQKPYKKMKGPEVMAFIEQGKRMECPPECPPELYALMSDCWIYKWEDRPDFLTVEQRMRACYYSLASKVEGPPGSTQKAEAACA
How it was run: as §1

[4] = biological target: T4, EGFR (Homo sapiens, UniProt P00533); assay: Kinase inhibition assay (33P transfer), EGFR; settings: Table 2, class symbols A-E; read-out: EGFR-1
T4 construct: Kinases are expressed as either kinase domains or full length constructs; made in house
T4 sequence (P00533 25-1210, species assumed): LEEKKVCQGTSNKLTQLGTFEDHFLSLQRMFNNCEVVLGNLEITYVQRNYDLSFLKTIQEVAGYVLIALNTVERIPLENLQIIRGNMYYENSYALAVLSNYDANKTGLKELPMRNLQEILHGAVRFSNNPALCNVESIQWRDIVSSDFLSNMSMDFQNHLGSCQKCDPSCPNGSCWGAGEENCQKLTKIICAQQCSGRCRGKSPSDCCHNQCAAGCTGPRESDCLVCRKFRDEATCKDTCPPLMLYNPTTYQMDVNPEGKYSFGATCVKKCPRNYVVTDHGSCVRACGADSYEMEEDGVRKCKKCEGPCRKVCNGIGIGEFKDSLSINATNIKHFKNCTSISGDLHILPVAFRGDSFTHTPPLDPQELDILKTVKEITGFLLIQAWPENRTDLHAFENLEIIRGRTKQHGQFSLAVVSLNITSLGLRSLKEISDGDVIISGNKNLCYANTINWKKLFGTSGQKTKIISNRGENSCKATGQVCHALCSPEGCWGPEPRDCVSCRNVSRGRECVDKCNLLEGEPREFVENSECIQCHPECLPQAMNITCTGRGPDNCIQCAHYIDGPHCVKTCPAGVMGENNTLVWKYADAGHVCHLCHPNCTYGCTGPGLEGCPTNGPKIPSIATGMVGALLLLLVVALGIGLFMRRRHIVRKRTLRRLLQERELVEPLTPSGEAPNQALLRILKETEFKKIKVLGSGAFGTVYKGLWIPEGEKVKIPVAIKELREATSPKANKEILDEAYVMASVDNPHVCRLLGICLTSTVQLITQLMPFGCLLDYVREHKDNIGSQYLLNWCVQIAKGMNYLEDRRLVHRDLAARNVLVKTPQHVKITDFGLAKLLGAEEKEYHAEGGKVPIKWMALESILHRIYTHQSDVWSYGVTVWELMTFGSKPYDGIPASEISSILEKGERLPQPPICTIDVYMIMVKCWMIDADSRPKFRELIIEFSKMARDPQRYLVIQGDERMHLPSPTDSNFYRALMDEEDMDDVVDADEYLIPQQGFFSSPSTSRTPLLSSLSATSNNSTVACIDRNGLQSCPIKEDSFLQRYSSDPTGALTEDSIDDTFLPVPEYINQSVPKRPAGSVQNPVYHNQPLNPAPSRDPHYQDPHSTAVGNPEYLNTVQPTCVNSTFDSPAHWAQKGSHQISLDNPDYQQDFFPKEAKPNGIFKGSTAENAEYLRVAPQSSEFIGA
How it was run: as §2

[5] = biological target: T5, AKT (Homo sapiens, UniProt Q9Y243); assay: Kinase inhibition assay (33P transfer), AKT; settings: Table 2, class symbols A-E; read-out: AKT3-1
T5 construct: Kinases are expressed as either kinase domains or full length constructs; made in house
T5 sequence (Q9Y243 whole entry, the tested form may be a part): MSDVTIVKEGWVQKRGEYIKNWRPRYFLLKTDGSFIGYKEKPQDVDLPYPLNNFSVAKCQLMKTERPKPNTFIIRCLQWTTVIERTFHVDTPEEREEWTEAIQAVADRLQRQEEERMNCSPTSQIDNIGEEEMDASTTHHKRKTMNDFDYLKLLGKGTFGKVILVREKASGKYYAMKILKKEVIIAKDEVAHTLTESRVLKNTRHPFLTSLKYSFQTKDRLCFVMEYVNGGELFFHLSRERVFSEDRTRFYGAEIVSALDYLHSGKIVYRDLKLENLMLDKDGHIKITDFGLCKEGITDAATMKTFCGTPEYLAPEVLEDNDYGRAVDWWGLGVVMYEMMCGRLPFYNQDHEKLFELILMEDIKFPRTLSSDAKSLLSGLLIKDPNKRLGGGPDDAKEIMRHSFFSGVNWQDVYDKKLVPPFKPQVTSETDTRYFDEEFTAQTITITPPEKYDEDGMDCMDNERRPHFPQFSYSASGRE
How it was run: as §1

[6] = biological target: T6, ErbB2 (Homo sapiens, UniProt P04626); assay: Kinase inhibition assay (33P transfer), ErbB2; settings: read-out: ErbB2-2
T6 construct: Kinases are expressed as either kinase domains or full length constructs; made in house
How it was run: as §2

[7] = biological target: T7, Kdr (Homo sapiens, UniProt P35968); assay: Kinase inhibition assay (33P transfer), Kdr; settings: Table 3, class symbols; read-out: KDR-1
T7 construct: Kinases are expressed as either kinase domains or full length constructs; made in house
How it was run: as §1

[8] = biological target: T8, IGFR-1 (Homo sapiens, UniProt P08069); assay: Kinase inhibition assay (33P transfer), IGFR-1; settings: Table 2, class symbols A-E
T8 construct: Kinases are expressed as either kinase domains or full length constructs; made in house
T8 sequence (P08069 31-1367): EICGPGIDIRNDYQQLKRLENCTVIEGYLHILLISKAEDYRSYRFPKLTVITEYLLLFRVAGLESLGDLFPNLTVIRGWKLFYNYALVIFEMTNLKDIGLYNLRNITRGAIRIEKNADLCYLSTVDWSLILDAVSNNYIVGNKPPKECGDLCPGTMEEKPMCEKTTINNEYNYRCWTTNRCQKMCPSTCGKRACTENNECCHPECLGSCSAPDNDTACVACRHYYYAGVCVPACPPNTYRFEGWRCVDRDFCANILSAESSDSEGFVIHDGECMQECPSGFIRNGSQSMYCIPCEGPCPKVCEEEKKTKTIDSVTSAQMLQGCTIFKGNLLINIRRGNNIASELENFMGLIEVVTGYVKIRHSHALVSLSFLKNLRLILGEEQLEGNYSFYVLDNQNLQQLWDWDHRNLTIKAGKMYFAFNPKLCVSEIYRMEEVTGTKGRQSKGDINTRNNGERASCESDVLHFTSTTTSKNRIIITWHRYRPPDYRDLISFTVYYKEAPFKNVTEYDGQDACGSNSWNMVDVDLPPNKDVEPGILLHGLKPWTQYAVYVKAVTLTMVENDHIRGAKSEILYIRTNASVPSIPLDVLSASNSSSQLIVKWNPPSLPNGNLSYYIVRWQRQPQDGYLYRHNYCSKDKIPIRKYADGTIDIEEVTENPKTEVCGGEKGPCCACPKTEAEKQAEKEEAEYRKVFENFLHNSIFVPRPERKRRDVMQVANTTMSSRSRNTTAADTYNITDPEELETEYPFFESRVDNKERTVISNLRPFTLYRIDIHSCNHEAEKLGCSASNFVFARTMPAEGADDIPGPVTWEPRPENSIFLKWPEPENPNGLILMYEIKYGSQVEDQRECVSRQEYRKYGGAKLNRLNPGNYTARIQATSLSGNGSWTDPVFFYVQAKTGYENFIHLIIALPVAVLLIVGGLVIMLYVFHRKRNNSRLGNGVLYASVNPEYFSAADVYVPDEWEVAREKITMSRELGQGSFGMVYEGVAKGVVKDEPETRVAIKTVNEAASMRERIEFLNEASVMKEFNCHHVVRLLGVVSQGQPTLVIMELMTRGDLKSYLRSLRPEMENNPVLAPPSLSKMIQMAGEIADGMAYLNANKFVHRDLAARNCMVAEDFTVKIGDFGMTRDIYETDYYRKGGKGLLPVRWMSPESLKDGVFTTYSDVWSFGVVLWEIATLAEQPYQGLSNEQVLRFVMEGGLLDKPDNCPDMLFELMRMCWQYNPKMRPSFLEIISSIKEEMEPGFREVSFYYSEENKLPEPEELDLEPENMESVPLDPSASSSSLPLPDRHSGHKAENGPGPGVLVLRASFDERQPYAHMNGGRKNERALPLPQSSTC

[9] = biological target: T9, PDGFRB (Homo sapiens, UniProt P09619); assay: Kinase inhibition assay (33P transfer), PDGFRB; settings: read-out: PDGFRB-1
T9 construct: Kinases are expressed as either kinase domains or full length constructs; made in house

[10] = biological target: T10, Itk (Homo sapiens, UniProt Q08881); assay: Kinase inhibition assay (33P transfer), Itk; settings: Table 3, class symbols; read-out: Itk-1
T10 construct: Kinases are expressed as either kinase domains or full length constructs; made in house
T10 sequence (Q08881 1-620): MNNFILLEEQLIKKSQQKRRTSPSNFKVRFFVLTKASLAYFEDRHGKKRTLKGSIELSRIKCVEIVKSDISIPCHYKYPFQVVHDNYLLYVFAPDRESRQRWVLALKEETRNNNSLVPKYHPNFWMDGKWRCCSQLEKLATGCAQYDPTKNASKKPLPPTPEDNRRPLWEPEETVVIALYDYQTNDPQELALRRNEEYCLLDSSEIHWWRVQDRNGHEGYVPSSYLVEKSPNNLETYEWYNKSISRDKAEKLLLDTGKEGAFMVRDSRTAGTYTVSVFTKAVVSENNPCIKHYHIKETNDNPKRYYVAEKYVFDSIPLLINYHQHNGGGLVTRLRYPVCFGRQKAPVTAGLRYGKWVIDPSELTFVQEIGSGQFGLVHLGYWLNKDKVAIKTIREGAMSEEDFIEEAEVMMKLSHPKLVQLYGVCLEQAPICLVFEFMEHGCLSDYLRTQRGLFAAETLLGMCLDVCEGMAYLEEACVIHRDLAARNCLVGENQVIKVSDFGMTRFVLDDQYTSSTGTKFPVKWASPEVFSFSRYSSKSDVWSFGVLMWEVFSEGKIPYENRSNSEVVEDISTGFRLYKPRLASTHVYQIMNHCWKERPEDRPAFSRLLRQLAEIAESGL
How it was run: as §2

T1 sequence (P06239 whole entry, species assumed, the tested form may be a part): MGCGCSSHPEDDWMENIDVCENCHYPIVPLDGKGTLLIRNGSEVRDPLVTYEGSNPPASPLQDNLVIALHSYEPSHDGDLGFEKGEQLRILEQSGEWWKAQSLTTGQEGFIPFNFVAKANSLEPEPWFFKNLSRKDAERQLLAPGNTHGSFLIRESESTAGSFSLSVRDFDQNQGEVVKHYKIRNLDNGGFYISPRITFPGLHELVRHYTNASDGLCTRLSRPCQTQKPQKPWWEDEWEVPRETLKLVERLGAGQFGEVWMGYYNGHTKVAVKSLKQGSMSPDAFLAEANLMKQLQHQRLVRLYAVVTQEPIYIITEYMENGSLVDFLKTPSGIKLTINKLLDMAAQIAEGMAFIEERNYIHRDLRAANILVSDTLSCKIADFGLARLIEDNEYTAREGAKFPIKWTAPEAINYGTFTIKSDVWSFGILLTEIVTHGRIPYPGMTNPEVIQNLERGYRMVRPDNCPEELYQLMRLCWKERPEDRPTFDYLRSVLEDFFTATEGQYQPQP

| Compound | pIC50 [1] | pIC50 [2] | pIC50 [3] | pIC50 [4] | pIC50 [5] | pIC50 [6] | pIC50 [7] | pIC50 [8] | pIC50 [9] | pIC50 [10] |
| --- | --- | --- | --- | --- | --- | --- | --- | --- | --- | --- |
| COc1cc(Nc2ncnc(-c3cccnc3Nc3ccccc3C)n2)cc(OC)c1OC [Compound 833] | > 6.05 | < 4.99 | < 4.99 | < 4.99 | < 4.99 | < 4.99 | > 6.05 | < 4.99 | > 6.05 | < 4.99 |
| COC(=O)c1ccc(-c2cc(Nc3ncnc(NCCc4c[nH]c5ccccc45)n3)[nH]n2)cc1 [Compound 806] | 5.28 to 6.06 | 5.28 to 6.06 | < 5.00 | 5.28 to 6.06 | < 5.00 | 5.28 to 6.06 | 5.28 to 6.06 | 5.28 to 6.06 | < 5.00 | 5.28 to 6.06 |
| COc1cc(Nc2ncnc(-c3cccnc3Nc3cc(Cl)cc(Cl)c3)n2)cc(OC)c1OC [Compound 837] | < 5.05 | < 5.05 | < 5.05 | < 5.05 | < 5.05 | < 5.05 | < 5.05 | < 5.05 | < 5.05 | < 5.05 |
| COc1cc(Nc2ncnc(-c3cccnc3Nc3cccc(C(C)=O)c3)n2)cc(OC)c1OC [Compound 831] | < 5.02 | 5.13 to 5.29 | < 5.02 | < 5.02 | < 5.02 | < 5.02 | < 5.02 | < 5.02 | > 6.07 | < 5.02 |
| COC(=O)c1ccc(-c2cc(Nc3ncnc(NCc4ccco4)n3)[nH]n2)cc1 [Compound 805] | < 4.94 | 5.05 to 5.21 | < 4.94 | < 4.94 | < 4.94 | < 4.94 | < 4.94 | 5.05 to 5.21 | < 4.94 | 5.05 to 5.21 |
| CCN(c1cccc(Cl)c1)c1ncnc(Nc2cc(OC)cc(OC)c2)n1 [Compound 724] | 5.21 to 5.98 | 5.21 to 5.98 | < 4.93 | > 5.98 | < 4.93 | 5.21 to 5.98 | 5.21 to 5.98 | 5.21 to 5.98 | 5.21 to 5.98 | 5.21 to 5.98 |
| COC(=O)c1ccc(-c2cc(Nc3ncnc(NCCc4ccc(OC)cc4)n3)[nH]n2)cc1 [Compound 817] | < 5.00 | < 5.00 | < 5.00 | < 5.00 | < 5.00 | 5.27 to 6.05 | < 5.00 | < 5.00 | 5.27 to 6.05 | < 5.00 |
| COc1cc(Nc2ncnc(-c3cccnc3NC3CCCCC3)n2)cc(OC)c1OC [Compound 848] | 4.99 to 5.10 | < 4.99 | < 4.99 | < 4.99 | < 4.99 | < 4.99 | > 6.04 | < 4.99 | > 6.04 | < 4.99 |

The next lines start with the values.

| pIC50 [1] | pIC50 [2] | pIC50 [3] | pIC50 [4] | pIC50 [5] | pIC50 [6] | pIC50 [7] | pIC50 [8] | pIC50 [9] | pIC50 [10] | Compound |
| --- | --- | --- | --- | --- | --- | --- | --- | --- | --- | --- |
| < 4.91 | 4.91 to 5.02 | < 4.91 | 5.18 to 5.96 | < 4.91 | 4.91 to 5.02 | 4.91 to 5.02 | < 4.91 | 5.18 to 5.96 | 5.02 to 5.18 | COc1ccc(Nc2ncnc(N(C)CCc3ccccn3)n2)cc1OC [Compound 869] |
| < 4.98 | 5.25 to 6.03 | < 4.98 | 5.25 to 6.03 | < 4.98 | < 4.98 | < 4.98 | 5.09 to 5.25 | 5.25 to 6.03 | 4.98 to 5.09 | CCOc1ccc(Nc2ncnc(Nc3cc(-c4ccc(C(=O)OC)cc4)n[nH]3)n2)cc1 [Compound 879] |
| 5.13 to 5.29 | > 6.07 | 5.02 to 5.13 | 5.29 to 6.07 | 5.13 to 5.29 | 5.29 to 6.07 | 5.13 to 5.29 | 5.29 to 6.07 | 5.29 to 6.07 | 5.13 to 5.29 | COC(=O)c1ccc(-c2cc(Nc3ncnc(Nc4cccc(Cc5nnn[nH]5)c4)n3)[nH]n2)cc1 [Compound 991] |
| 5.32 to 6.10 | 5.05 to 5.16 | < 5.05 | < 5.05 | 5.05 to 5.16 | < 5.05 | 5.32 to 6.10 | < 5.05 | > 6.10 | 5.16 to 5.32 | COc1cc(Nc2ncnc(-c3cccnc3NC(C)C)n2)ccc1NC(=O)CCCN1CCNCC1 [Compound 1096] |
| < 4.91 | < 4.91 | < 4.91 | < 4.91 | < 4.91 | < 4.91 | < 4.91 | < 4.91 | < 4.91 | < 4.91 | COc1ccc(CNc2ncnc(Nc3cc(-c4ccco4)n[nH]3)n2)cc1 [Compound 994] |
| 4.91 to 5.02 | < 4.91 | < 4.91 | 5.18 to 5.96 | < 4.91 | < 4.91 | 4.91 to 5.02 | 5.18 to 5.96 | 5.18 to 5.96 | 5.18 to 5.96 | COc1cc(Nc2ncnc(-n3ccnc3Cl)n2)cc(OC)c1OC [Compound 1071] |
| 5.18 to 5.96 | 5.18 to 5.96 | < 4.90 | > 5.96 | < 4.90 | 5.18 to 5.96 | 5.18 to 5.96 | < 4.90 | > 5.96 | 4.90 to 5.01 | CCOc1cccc(Nc2ncnc(N3CCCc4cc(C)ccc43)n2)c1 [Compound 892] |
| 5.21 to 5.99 | > 5.99 | 5.21 to 5.99 | > 5.99 | 5.21 to 5.99 | 5.21 to 5.99 | > 5.99 | 5.21 to 5.99 | < 4.94 | > 5.99 | O=C(O)/C=C/c1ccc(Nc2ncnc(Nc3cc(-c4ccco4)[nH]n3)n2)cc1 [Compound 886] |
